Consider 19 compounds from ChEMBL document CHEMBL3132826, “Investigation of a tetrahydroisoquinoline scaffold as dual-action steroid sulfatase inhibitors generated by parallel solid-phase synthesis” (Medchemcomm, 2013).

The nature of data set [1]: Estrogenic activity in human Saos2 cells assessed as increase in alkaline phosphatase activity at 1 nM. The conditions noted are these: saos-2, 0.001 µM. Format: ADME, cell-based.
Data set [2] deals with MCF7. Briefly: Estrogenic activity in human MCF7 cells assessed as cell proliferation at 1 uM by MTS assay relative to basal level. Format: ADME, cell-based. The conditions noted are these: mcf7, 1 µM. For orientation: Formazan colour is commonly taken as a measure of viable cells.
Data set [3] concerns MCF7. Briefly: Estrogenic activity in human MCF7 cells assessed as cell proliferation at 0.1 uM by MTS assay relative to basal level. Format: ADME, cell-based. The note with it: mcf7, 0.1 µM.
Data set [4] has as its system MCF7. Briefly: Estrogenic activity in human MCF7 cells assessed as cell proliferation at 0.01 uM by MTS assay relative to basal level. Format: ADME, cell-based. The note with it: mcf7, 0.01 µM.
Data set [5] can be described thus: Estrogenic activity in human Saos2 cells assessed as cell proliferation at 1 uM. Format: ADME, cell-based. The conditions noted are these: saos-2, 1 µM.
Data set [6] concerns the target T1, Steryl-sulfatase (Homo sapiens) (UniProt P08842).
T1 sequence (whole entry): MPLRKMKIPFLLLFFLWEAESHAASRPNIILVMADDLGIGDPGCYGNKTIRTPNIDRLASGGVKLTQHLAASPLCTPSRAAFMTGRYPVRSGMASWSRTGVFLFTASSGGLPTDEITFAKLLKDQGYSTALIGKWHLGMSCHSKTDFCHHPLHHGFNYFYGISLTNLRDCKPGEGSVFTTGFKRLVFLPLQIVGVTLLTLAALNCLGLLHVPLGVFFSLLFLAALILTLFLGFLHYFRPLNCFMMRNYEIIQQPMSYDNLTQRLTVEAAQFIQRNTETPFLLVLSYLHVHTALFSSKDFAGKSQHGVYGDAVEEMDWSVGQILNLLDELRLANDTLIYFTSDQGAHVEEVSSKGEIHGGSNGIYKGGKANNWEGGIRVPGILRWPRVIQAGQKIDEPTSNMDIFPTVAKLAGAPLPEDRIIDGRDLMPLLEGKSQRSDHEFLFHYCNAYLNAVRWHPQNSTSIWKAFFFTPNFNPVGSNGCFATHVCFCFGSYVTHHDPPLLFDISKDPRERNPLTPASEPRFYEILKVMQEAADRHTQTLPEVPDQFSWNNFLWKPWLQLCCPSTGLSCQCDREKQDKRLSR
In words: Inhibition of STS (unknown origin) expressed in HEK-293 cells assessed as transformation of [3H]-E1S into E1 at 1 uM by […]. Format: cell-based. The conditions noted are these: HEK293.

Data set [7] in a line: Lipophilicity, log P of the compound. Format: physicochemical. The conditions noted are these: octanol/water.
The target in data set [8] is T1, Steryl-sulfatase (Homo sapiens). Briefly: Inhibition of STS (unknown origin) expressed in HEK-293 cells assessed as transformation of [3H]-E1S into E1 at 0.1 uM by […]. Format: cell-based. The note with it: HEK293.
Data set [9] deals with MCF7. In words: Estrogenic activity in human MCF7 cells assessed as cell proliferation at 0.1 nM by MTS assay relative to basal level. Format: ADME, cell-based. The note with it: mcf7, 0.0001 µM.

On to `CCN(Cc1ccccn1)c1ccc(C(=O)N2CCc3ccc(O)cc3C2)cc1`, for which the Activity in data set [1] came out at 147%; in data set [2], 84%; in [3], 0%; in data set [4] it was 2.7%; in [5], 140%.
By inhibition is commonly meant the relative decrease from the control value, in per cent. In general, logP refers to the decadic logarithm of the partition coefficient of the neutral form, usually between octanol and water. `CCCN(CCC)c1ccc(C(=O)N2CCc3ccc(OS(N)(=O)=O)cc3C2)cc1`: the results for the inhibition in data set [6] and in data set [8] were 84.7% and 36.6%, respectively. The compound further came in with a logP in data set [7] of 3.07.
Turning to `CC/C(=C(\c1ccccc1)c1ccc(OCCN(C)C)cc1)c1ccccc1` [TAMOXIFEN], the Activity in data set [1] came out at 143%.
On to `CCN(Cc1ccncc1)c1ccc(C(=O)N2CCc3ccc(O)cc3C2)cc1`, for which the Activity in [1] was 133%; in [2], 0%; in data set [3], 0%; in [4] it was 0%; in data set [5], “Toxic”.
Consider `O=C(c1ccc(N2CCc3ccccc3C2)cc1)N1CCc2ccc(O)cc2C1`, for which the Activity in data set [1] is on record as 133%; in data set [2] it was 6.3%; in data set [3], 1.7%; in data set [4], 0%; in data set [5], “Toxic”.
`C[C@]12CC[C@@H]3c4ccc(O)cc4CC[C@H]3[C@@H]1CC[C@@H]2O` [ESTRADIOL]: the Activity is 148% in [1], 144% in data set [5] and 75.6% in data set [9].
Consider `O=C(c1ccc(N(Cc2ccccc2)Cc2ccco2)cc1)N1CCc2ccc(O)cc2C1`, for which the Activity in [1] was 133%; in data set [2], 7.7%; in [3], 0%; in [4], 0%; in data set [5] it was “Toxic”.
Turning to `CCN(Cc1ccccc1)c1ccc(C(=O)N2CCc3ccc(OS(N)(=O)=O)cc3C2)cc1`, the inhibition in data set [6] stood at 83.6%; in [8], 66.9%. This compound also gave a logP in data set [7] of 3.08.
Take `CN(C)CCN(CCN(C)C)c1ccc(C(=O)N2CCc3ccc(O)cc3C2)cc1`: the values for the Activity in [2], in [3] and in data set [4] were 4.5%, 0% and 0%, respectively.
For the compound `NS(=O)(=O)Oc1ccc2c(c1)CN(C(=O)c1ccc(N3CCC(Cc4ccccc4)CC3)cc1)CC2`, the inhibition came out at 81.3% in data set [6] and 41.4% in [8]. Besides, the logP in data set [7] worked out at 3.87.
For the compound `CN(CCCN1CCCCC1)c1cccc(C(=O)N2CCc3ccc(O)cc3C2)c1`, the Activity in [2] is 19%; in data set [3], 2.5%; in [4] it was 2.9%.
For `CCN(Cc1ccc(F)cc1)c1cccc(C(=O)N2CCc3ccc(O)cc3C2)c1` the same measures were 101.3%, 31.9% and 9.5%.
For `CC(C)CCN(CCC(C)C)c1cccc(C(=O)N2CCc3ccc(O)cc3C2)c1` the same measures were 10.6%, 0% and 0%.
Consider `O=C(c1ccc(N(CCO)Cc2ccccc2)cc1)N1CCc2ccc(O)cc2C1`, for which the values for the Activity in [2], in data set [3] and in data set [4] were 34.6%, 14.8% and 8.4%, respectively.
Consider `CCN(Cc1ccc(F)cc1)c1ccc(C(=O)N2CCc3ccc(O)cc3C2)cc1`, for which the Activity in data set [1] is on record as 152%; in data set [2], 4.8%; in data set [3] it was 0%; in [4], 0%; in data set [5], “Toxic”.
For the compound `CN(C)CCCN(Cc1ccccc1)c1cccc(C(=O)N2CCc3ccc(O)cc3C2)c1`, the Activity in data set [2] is 5.4%; in data set [3], 0%; in [4], 0%.
`CC(C)CCN(CCC(C)C)c1ccc(C(=O)N2CCc3ccc(O)cc3C2)cc1`: the Activity is listed as 133% in data set [1]; 0% in data set [2]; 0% in [3]; 0% in data set [4]; “Toxic” in data set [5].
As for `CCN(Cc1cccnc1)c1ccc(C(=O)N2CCc3ccc(O)cc3C2)cc1`, the Activity in data set [1] is 133%; in [2], 0%; in [3], 2%; in data set [4], 0%; in [5], “Toxic”.
Turning to `CN(C)CCN(Cc1ccccc1)c1cccc(C(=O)N2CCc3ccc(O)cc3C2)c1`, the Activity in [2] is listed as 30.5%; in data set [3] it was 7.4%; in [4], 4.1%.
